Data taken from article PMC5218480 (PLoS ONE, 2017).

Tested on: MV-4-11 cells
Test: Gene expression microarray analysis (Affymetrix PrimeView) and GSEA
Assay type: cell-based, human
Parameters: RFU PODN (11730768_x_at) / Fold change /veh PODN (11730768_x_at) / RFU LINC00158 (11744669_a_at) / Fold change /veh LINC00158 (11744669_a_at) / RFU DUSP10 (11751237_a_at) / Fold change /veh DUSP10 (11751237_a_at) / RFU ID3 (11757404_x_at) / Fold change /veh ID3 (11757404_x_at) / RFU PLEKHG5 (11737974_s_at) / Fold change /veh PLEKHG5 (11737974_s_at) / RFU LRRC4B (11730491_at) / Fold change /veh LRRC4B (11730491_at) / RFU GIMAP4 (11747438_a_at) / Fold change /veh GIMAP4 (11747438_a_at) / RFU KRT8 (11758183_x_at) / Fold change /veh KRT8 (11758183_x_at) / RFU CNN1 (11734310_a_at) / Fold change /veh CNN1 (11734310_a_at) / RFU VPS37D (11726825_at) / Fold change /veh VPS37D (11726825_at) / RFU C10orf10 (11716522_x_at) / Fold change /veh C10orf10 (11716522_x_at) / RFU KIR2DL2 /// KIR2DL4 /// KIR2DL5A /// KIR2DL5B /// KIR2DS1 /// KIR2DS2 /// KIR2DS3 /// KIR2DS4 /// KIR3DL3 /// KIR3DL3 /// KIR3DS1 (11738374_at) / Fold change /veh KIR2DL2 /// KIR2DL4 /// KIR2DL5A /// KIR2DL5B /// KIR2DS1 /// KIR2DS2 /// KIR2DS3 /// KIR2DS4 /// KIR3DL3 /// KIR3DL3 /// KIR3DS1 (11738374_at) / RFU C1QL1 (11718748_at) / Fold change /veh C1QL1 (11718748_at) / RFU TMPRSS4 (11747572_a_at) / Fold change /veh TMPRSS4 (11747572_a_at) / RFU HAMP (11756126_x_at) / Fold change /veh HAMP (11756126_x_at) / RFU RNFT2 (11725882_a_at) / Fold change /veh RNFT2 (11725882_a_at) / RFU NR4A2 (11747474_a_at) / Fold change /veh NR4A2 (11747474_a_at) / RFU ABCC12 (11746883_a_at) / Fold change /veh ABCC12 (11746883_a_at) / RFU TMEM136 (11760407_x_at) / Fold change /veh TMEM136 (11760407_x_at) / RFU CLDN22 /// WWC2 (11732394_at) / Fold change /veh CLDN22 /// WWC2 (11732394_at) / RFU HLA-DPB1 (11760878_x_at) / Fold change /veh HLA-DPB1 (11760878_x_at) / RFU SPINT1 (11716480_a_at) / Fold change /veh SPINT1 (11716480_a_at) / RFU GAP43 (11754022_s_at) / Fold change /veh GAP43 (11754022_s_at) / RFU A4GNT (11735810_at) / Fold change /veh A4GNT (11735810_at) / RFU PRB3 (11715151_x_at) / Fold change /veh PRB3 (11715151_x_at) / RFU TUBB4B (11761932_at) / Fold change /veh TUBB4B (11761932_at) / RFU CAPN14 (11732068_a_at) / Fold change /veh CAPN14 (11732068_a_at) / RFU TMCC2 (11721928_a_at) / Fold change /veh TMCC2 (11721928_a_at) / RFU IRGQ (11745062_a_at) / Fold change /veh IRGQ (11745062_a_at) / RFU FAM174B (11720279_a_at) / Fold change /veh FAM174B (11720279_a_at) / RFU TMPRSS4 (11748680_a_at) / Fold change /veh TMPRSS4 (11748680_a_at) / RFU FAM212B (11763350_a_at) / Fold change /veh FAM212B (11763350_a_at) / RFU PLEKHG5 (11743358_a_at) / Fold change /veh PLEKHG5 (11743358_a_at) / RFU ZSCAN30 (11745921_a_at) / Fold change /veh ZSCAN30 (11745921_a_at) / RFU CMKLR1 (11741424_a_at) / Fold change /veh CMKLR1 (11741424_a_at) / RFU LOC101060620 /// MAPK8IP1 (11723275_at) / Fold change /veh LOC101060620 /// MAPK8IP1 (11723275_at) / RFU SPTSSB (11747773_x_at) / Fold change /veh SPTSSB (11747773_x_at) / RFU PRSS12 (11739890_at) / Fold change /veh PRSS12 (11739890_at) / RFU BIN1 (11741810_x_at) / Fold change /veh BIN1 (11741810_x_at) / RFU WNT11 (11732464_a_at) / Fold change /veh WNT11 (11732464_a_at) / RFU C10orf10 (11716521_a_at) / Fold change /veh C10orf10 (11716521_a_at) / RFU C5orf56 (11738089_at) / Fold change /veh C5orf56 (11738089_at) / RFU CYB561 (11721691_x_at) / Fold change /veh CYB561 (11721691_x_at) / RFU ANKRD19P (11752326_a_at) / Fold change /veh ANKRD19P (11752326_a_at) / RFU OR2T12 /// OR2T33 /// OR2T8 (11738714_s_at) / Fold change /veh OR2T12 /// OR2T33 /// OR2T8 (11738714_s_at) / RFU VCAN (11748164_a_at) / Fold change /veh VCAN (11748164_a_at) / RFU JSRP1 (11732532_at) / Fold change /veh JSRP1 (11732532_at) / RFU KRTAP10-11 (11738290_x_at) / Fold change /veh KRTAP10-11 (11738290_x_at) / RFU MYO3A (11730013_a_at) / Fold change /veh MYO3A (11730013_a_at) / RFU EBF3 (11725865_a_at) / Fold change /veh EBF3 (11725865_a_at) / RFU CAMK2N1 (11719241_x_at) / Fold change /veh CAMK2N1 (11719241_x_at) / RFU C5orf56 (11738088_a_at) / Fold change /veh C5orf56 (11738088_a_at) / RFU OLFML3 (11715873_a_at) / Fold change /veh OLFML3 (11715873_a_at) / RFU LOC100653217 /// NTM (11731650_a_at) / Fold change /veh LOC100653217 /// NTM (11731650_a_at) / RFU MAPK11 (11762145_a_at) / Fold change /veh MAPK11 (11762145_a_at) / RFU FIZ1 (11724087_x_at) / Fold change /veh FIZ1 (11724087_x_at) / RFU OASL (11726364_x_at) / Fold change /veh OASL (11726364_x_at) / RFU SOX15 (11748057_x_at) / Fold change /veh SOX15 (11748057_x_at) / RFU CD79A (11719716_a_at) / Fold change /veh CD79A (11719716_a_at) / RFU HIST1H1D (11736915_at) / Fold change /veh HIST1H1D (11736915_at) / RFU CASKIN2 (11723855_a_at) / Fold change /veh CASKIN2 (11723855_a_at) / RFU LOC730098 (11760151_x_at) / Fold change /veh LOC730098 (11760151_x_at) / RFU OR4N2 (11742367_at) / Fold change /veh OR4N2 (11742367_at) / RFU PRRT2 (11749266_a_at) / Fold change /veh PRRT2 (11749266_a_at) / RFU SNX32 (11753110_a_at) / Fold change /veh SNX32 (11753110_a_at) / RFU CDHR5 (11726645_a_at) / Fold change /veh CDHR5 (11726645_a_at) / RFU RCAN1 (11760418_a_at) / Fold change /veh RCAN1 (11760418_a_at) / RFU FAM167A (11723789_a_at) / Fold change /veh FAM167A (11723789_a_at) / RFU FAM26E (11764081_at) / Fold change /veh FAM26E (11764081_at) / RFU ISYNA1 (11749810_s_at) / Fold change /veh ISYNA1 (11749810_s_at) / RFU ACY1 (11761880_at) / Fold change /veh ACY1 (11761880_at) / RFU 11764098_at / Fold change /veh 11764098_at / RFU SAMD14 (11745864_x_at) / Fold change /veh SAMD14 (11745864_x_at) / RFU NPB (11741838_a_at) / Fold change /veh NPB (11741838_a_at) / RFU TMPRSS6 (11731388_a_at) / Fold change /veh TMPRSS6 (11731388_a_at) / RFU KRTAP10-2 (11738614_at) / Fold change /veh KRTAP10-2 (11738614_at) / RFU ARHGAP8 /// PRR5-ARHGAP8 (11727945_x_at) / Fold change /veh ARHGAP8 /// PRR5-ARHGAP8 (11727945_x_at) / RFU KRTAP5-7 /// NADSYN1 (11734609_at) / Fold change /veh KRTAP5-7 /// NADSYN1 (11734609_at) / RFU RASL12 (11751679_a_at) / Fold change /veh RASL12 (11751679_a_at) / RFU CDKN2B (11736163_a_at) / Fold change /veh CDKN2B (11736163_a_at) / RFU PRF1 (11729649_at) / Fold change /veh PRF1 (11729649_at) / RFU, ZNF638 /// ZNF638-IT1 / Fold change vs veh, ZNF638 /// ZNF638-IT1 / RFU, PANK3 / Fold change vs veh, PANK3 / RFU, SH3YL1 / Fold change vs veh, SH3YL1 / RFU, ZEB2 / Fold change vs veh, ZEB2 / RFU, NRIP1 / Fold change vs veh, NRIP1 / RFU, PTTG1IP / Fold change vs veh, PTTG1IP / RFU, CAPN2 / Fold change vs veh, CAPN2 / RFU, MED14 / Fold change vs veh, MED14 / RFU, SNORA58 / Fold change vs veh, SNORA58 / RFU, C1orf63 / Fold change vs veh, C1orf63 / RFU, LRRFIP1 / Fold change vs veh, LRRFIP1 / RFU, NDUFAF7 / Fold change vs veh, NDUFAF7 / RFU, SLC12A2 / Fold change vs veh, SLC12A2 / RFU, IBTK / Fold change vs veh, IBTK / RFU, ESF1 / Fold change vs veh, ESF1 / Fold change vs veh, TMEM50B / RFU, TAOK1 / Fold change vs veh, TAOK1 / RFU, ACBD3 / Fold change vs veh, ACBD3 / RFU, TMA16 / Fold change vs veh, TMA16 / RFU, RWDD3 / Fold change vs veh, RWDD3 / RFU, BCAT1 / Fold change vs veh, BCAT1 / RFU, EDEM3 / Fold change vs veh, EDEM3 / RFU, TMEM33 / Fold change vs veh, TMEM33 / RFU, WDR75 / Fold change vs veh, WDR75 / RFU, AHCTF1 / Fold change vs veh, AHCTF1 / RFU, TFRC / Fold change vs veh, TFRC / RFU, ZDHHC17 / Fold change vs veh, ZDHHC17 / RFU, NOM1 / Fold change vs veh, NOM1 / RFU, ARL8B / Fold change vs veh, ARL8B / RFU, ZBTB11 / Fold change vs veh, ZBTB11 / RFU, TAMM41 / Fold change vs veh, TAMM41 / RFU, KIAA1704 /// LOC100996395 / Fold change vs veh, KIAA1704 /// LOC100996395 / RFU, ING1 / Fold change vs veh, ING1 / RFU, TRMT61B / Fold change vs veh, TRMT61B / RFU, FUBP3 / Fold change vs veh, FUBP3 / RFU, TP53 / Fold change vs veh, TP53 / RFU, TNKS2 / Fold change vs veh, TNKS2 / RFU, ZFP14 / Fold change vs veh, ZFP14 / RFU, ACTR2 / Fold change vs veh, ACTR2 / RFU, PPP3R1 / Fold change vs veh, PPP3R1 / RFU, PIK3R1 / Fold change vs veh, PIK3R1 / RFU, HNRNPA1 / Fold change vs veh, HNRNPA1 / RFU, RNF170 / Fold change vs veh, RNF170 / RFU, ZNF28 / Fold change vs veh, ZNF28 / RFU, RNGTT / Fold change vs veh, RNGTT / RFU, OGT / Fold change vs veh, OGT / RFU, BRD1 / Fold change vs veh, BRD1 / RFU, MARS / Fold change vs veh, MARS / RFU, ZNF655 / Fold change vs veh, ZNF655 / RFU, FAHD1 / Fold change vs veh, FAHD1 / RFU, BDP1 / Fold change vs veh, BDP1 / RFU, LRRCC1 / Fold change vs veh, LRRCC1 / RFU, ARID1A / Fold change vs veh, ARID1A / RFU, ZNF146 / Fold change vs veh, ZNF146 / RFU, ZNF330 / Fold change vs veh, ZNF330 / RFU, GPN3 / Fold change vs veh, GPN3 / RFU, C9orf123 / Fold change vs veh, C9orf123 / RFU, N4BP2L2 / Fold change vs veh, N4BP2L2 / RFU, ARFIP1 / Fold change vs veh, ARFIP1 / RFU, FAM179B / Fold change vs veh, FAM179B / RFU, BCL10 / Fold change vs veh, BCL10 / RFU, UHRF1BP1L / Fold change vs veh, UHRF1BP1L / RFU, BET1 / Fold change vs veh, BET1 / RFU, CNOT2 / Fold change vs veh, CNOT2 / RFU, ZNF268 / Fold change vs veh, ZNF268 / Fold change vs veh, ZNF507 / RFU, DGCR2 / Fold change vs veh, DGCR2 / RFU, WDSUB1 / Fold change vs veh, WDSUB1 / Fold change vs veh, HSP90B1 /// MIR3652 / RFU, ADSS / Fold change vs veh, ADSS / RFU, GK / Fold change vs veh, GK / RFU, ZNF148 / Fold change vs veh, ZNF148 / RFU, TAF9 / Fold change vs veh, TAF9 / RFU, SLC1A5 / Fold change vs veh, SLC1A5 / RFU, SLMO2 / Fold change vs veh, SLMO2 / RFU, ABCC4 / Fold change vs veh, ABCC4 / RFU, LOC101060439 /// RAP1B / Fold change vs veh, LOC101060439 /// RAP1B / RFU, RFX7 / Fold change vs veh, RFX7 / RFU, GTPBP10 / Fold change vs veh, GTPBP10 / RFU, CNEP1R1 / Fold change vs veh, CNEP1R1 / RFU, BIVM-ERCC5 /// ERCC5 / Fold change vs veh, BIVM-ERCC5 /// ERCC5 / RFU, ILF3 / Fold change vs veh, ILF3 / RFU 11762660_at / Fold change /veh 11762660_at / RFU VCAN (11757783_s_at) / Fold change /veh VCAN (11757783_s_at) / RFU DDX43 (11728927_at) / Fold change /veh DDX43 (11728927_at) / RFU KRT8 (11758188_x_at) / Fold change /veh KRT8 (11758188_x_at) / RFU NKD1 (11759106_at) / Fold change /veh NKD1 (11759106_at) / RFU SRD5A1 (11742802_a_at) / Fold change /veh SRD5A1 (11742802_a_at) / RFU TPSAB1 /// TPSB2 (11721975_s_at) / Fold change /veh TPSAB1 /// TPSB2 (11721975_s_at) / RFU GSTM3 (11746129_a_at) / Fold change /veh GSTM3 (11746129_a_at) / RFU IL23R (11737362_x_at) / Fold change /veh IL23R (11737362_x_at) / RFU TMEM51 (11727254_a_at) / Fold change /veh TMEM51 (11727254_a_at) / RFU PIWIL2 (11732686_x_at) / Fold change /veh PIWIL2 (11732686_x_at) / RFU ORM1 (11744905_x_at) / Fold change /veh ORM1 (11744905_x_at) / RFU CCDC152 (11743942_at) / Fold change /veh CCDC152 (11743942_at) / RFU ECM1 (11717891_a_at) / Fold change /veh ECM1 (11717891_a_at) / RFU IL23R (11748794_a_at) / Fold change /veh IL23R (11748794_a_at) / RFU TNFAIP8L3 (11732012_x_at) / Fold change /veh TNFAIP8L3 (11732012_x_at) / RFU MBOAT4 (11741988_at) / Fold change /veh MBOAT4 (11741988_at) / RFU 11764193_at / Fold change /veh 11764193_at / RFU TMEM53 (11763286_at) / Fold change /veh TMEM53 (11763286_at) / RFU MAGEB2 (11727129_at) / Fold change /veh MAGEB2 (11727129_at) / RFU TMEM200A (11744735_a_at) / Fold change /veh TMEM200A (11744735_a_at) / RFU CCDC152 (11751479_a_at) / Fold change /veh CCDC152 (11751479_a_at) / RFU FAM211A (11726209_a_at) / Fold change /veh FAM211A (11726209_a_at) / RFU RGS16 (11746705_a_at) / Fold change /veh RGS16 (11746705_a_at) / RFU VCAN (11755009_s_at) / Fold change /veh VCAN (11755009_s_at) / RFU RHOB (11743442_s_at) / Fold change /veh RHOB (11743442_s_at) / RFU RGS16 (11720943_a_at) / Fold change /veh RGS16 (11720943_a_at) / RFU RGS16 (11720944_at) / Fold change /veh RGS16 (11720944_at) / RFU, VPS4B / Fold change vs veh, VPS4B / RFU, CREB1 / Fold change vs veh, CREB1 / RFU, DNAJC13 / Fold change vs veh, DNAJC13 / RFU, GNAQ / Fold change vs veh, GNAQ / RFU, CDK5R1 / Fold change vs veh, CDK5R1 / RFU, ZRANB3 / Fold change vs veh, ZRANB3 / RFU, CUL4A / Fold change vs veh, CUL4A / RFU, CCNY / Fold change vs veh, CCNY / RFU, UFL1 / Fold change vs veh, UFL1 / RFU, COG3 / Fold change vs veh, COG3 / RFU, DIAPH2 / Fold change vs veh, DIAPH2 / RFU, SKA2 / Fold change vs veh, SKA2 / RFU, AFF3 / Fold change vs veh, AFF3 / RFU, LMF1 / Fold change vs veh, LMF1 / RFU, IPO11 / Fold change vs veh, IPO11 / RFU, DFFB / Fold change vs veh, DFFB / RFU, FOXP1 / Fold change vs veh, FOXP1 / RFU, CARD8 / Fold change vs veh, CARD8 / RFU, STRN3 / Fold change vs veh, STRN3 / RFU, ADK / Fold change vs veh, ADK / RFU, RASSF2 / Fold change vs veh, RASSF2 / RFU, WIPF1 / Fold change vs veh, WIPF1 / RFU, LARP1B / Fold change vs veh, LARP1B / RFU, RASA1 / Fold change vs veh, RASA1 / RFU, RB1 / Fold change vs veh, RB1 / RFU, PPFIA1 / Fold change vs veh, PPFIA1 / RFU, MAT2A / Fold change vs veh, MAT2A / RFU, CCT5 / Fold change vs veh, CCT5 / RFU, WDR92 / Fold change vs veh, WDR92 / RFU, CUX1 / Fold change vs veh, CUX1 / RFU, TTC7A / Fold change vs veh, TTC7A / RFU, TMEM135 / Fold change vs veh, TMEM135 / RFU, DEPTOR / Fold change vs veh, DEPTOR / RFU, CPM / Fold change vs veh, CPM / RFU, DNAJB6 / Fold change vs veh, DNAJB6 / RFU, CACNA2D3 / Fold change vs veh, CACNA2D3 / RFU, DTX4 / Fold change vs veh, DTX4 / RFU, TFCP2 / Fold change vs veh, TFCP2 / RFU, GMCL1 /// GMCL1P1 / Fold change vs veh, GMCL1 /// GMCL1P1 / RFU, AEBP2 / Fold change vs veh, AEBP2 / RFU, SNHG1 /// SNORD22 /// SNORD25 /// SNORD26 /// SNORD27 /// SNORD28 /// SNORD29 /// SNORD31 / Fold change vs veh, SNHG1 /// SNORD22 /// SNORD25 /// SNORD26 /// SNORD27 /// SNORD28 /// SNORD29 /// SNORD31 / Fold change (Aza/veh), C12orf56 (ProbeSet 11735607_a_at) / Fold change (ACY-1035/veh), C12orf56 (ProbeSet 11735607_a_at) / Fold change (Aza/veh), FGFR1OP (ProbeSet 11751329_s_at) / Fold change (ACY-1035/veh), FGFR1OP (ProbeSet 11751329_s_at) / Fold change (Aza/veh), VPS36 (ProbeSet 11739960_a_at) / Fold change (ACY-1035/veh), VPS36 (ProbeSet 11739960_a_at) / RFU SYPL1 (11715823_x_at) / Fold change /veh SYPL1 (11715823_x_at) / RFU IGFBP7 (11715501_s_at) / Fold change /veh IGFBP7 (11715501_s_at) / RFU REEP3 (11722064_at) / Fold change /veh REEP3 (11722064_at) / RFU IGLL1 (11728026_x_at) / Fold change /veh IGLL1 (11728026_x_at): dose or concentration left out as unconfirmed
Details: MV-4-11 cells, 48 hours

## Nc1ncn([C@@H]2O[C@H](CO)[C@@H](O)[C@H]2O)c(=O)n1 [azacitidine]
  RFU TMEM200A (11744735_a_at): 6.62 RFU
